Experimental findings from patent US10889611B2, “Sialyltransferase inhibitors and uses thereof” (Academia Sinica, priority 2015, dated 2021) are described below.

Some results are limits rather than exact numbers.

Experiment [1] deals with T1, α2,6(N)-sialyltransferases ST6GALI (Homo sapiens, UniProt P15907).
T1 construct: purchased RnDSystems.com (R&D Systems)
T1 sequence (P15907 1-406): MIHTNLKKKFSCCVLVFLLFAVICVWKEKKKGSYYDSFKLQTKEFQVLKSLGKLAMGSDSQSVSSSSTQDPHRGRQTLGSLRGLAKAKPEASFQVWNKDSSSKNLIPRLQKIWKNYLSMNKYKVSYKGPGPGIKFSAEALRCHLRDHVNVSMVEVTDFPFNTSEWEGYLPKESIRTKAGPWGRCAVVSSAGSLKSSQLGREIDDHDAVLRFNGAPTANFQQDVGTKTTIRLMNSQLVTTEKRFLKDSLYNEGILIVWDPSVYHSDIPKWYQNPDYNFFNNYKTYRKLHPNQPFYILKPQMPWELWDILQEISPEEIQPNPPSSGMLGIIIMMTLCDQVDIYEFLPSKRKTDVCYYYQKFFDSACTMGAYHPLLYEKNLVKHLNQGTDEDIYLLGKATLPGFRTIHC
Briefly: Sialyltransferase inhibition assay, ST6GALI (reverse-phase HPLC). Format: biochemical. The method in brief:
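Human ST6GalI (1.4 mU) incubated 15 min at 37° C with 25 μM Galβ1-4GlcNAc, 1 mM CMP-Neu5Ac and inhibitor in 200 mM MES, 100 mM NaCl, 0.5 mM EDTA, 0.01% Triton X-100. Sialylated product quantified by reverse-phase HPLC; kinetics from nonlinear fitting of initial rates.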

The target of experiment [2] is T2, α2,3(O)-sialyltransferase ST3GALI (Rattus norvegicus, UniProt Q6H8N0).
T2 construct: purchased Calbiochem
T2 sequence (Q6H8N0 1-340): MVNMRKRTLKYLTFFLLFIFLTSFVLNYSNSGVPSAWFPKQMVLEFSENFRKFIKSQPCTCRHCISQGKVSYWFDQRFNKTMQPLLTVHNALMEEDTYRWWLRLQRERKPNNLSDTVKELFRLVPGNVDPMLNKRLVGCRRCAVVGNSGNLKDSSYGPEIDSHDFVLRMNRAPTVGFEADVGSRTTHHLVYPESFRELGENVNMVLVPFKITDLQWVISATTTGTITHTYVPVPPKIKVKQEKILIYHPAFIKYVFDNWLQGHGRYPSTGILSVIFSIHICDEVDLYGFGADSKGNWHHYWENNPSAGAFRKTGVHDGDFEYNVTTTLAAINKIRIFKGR
Put plainly: Sialyltransferase inhibition assay, ST3GALI (reverse-phase HPLC). The note with it: read-out: ST3GALI inhibition percentage. In kind it is biochemical. The method in brief:
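Rat ST3Gal(I) (1.4 mU) was incubated with 2.5 mM T-antigen and 1 mM CMP-Neu5Ac in 200 mM MES, 100 mM NaCl, 0.5 mM EDTA and 0.01% Triton X-100 with varied inhibitor, 15 min at 37 °C, then heat-quenched. Sialylated product was quantified by reverse-phase HPLC, and kinetic values came from nonlinear regression of initial rates.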

In experiment [3] the test system is PANC-1 cells. Briefly: SNA lectin staining of 2,6-sialylation by FACS in PANC-1 cells. In kind it is cell-based, human. The following applies: PANC-1 cells grown in fructose-containing medium, FIG. 3. An excerpt: PANC-1 cells were first grown in glucose-containing or fructose-containing medium treated with or without the presence of the test compound (i.e., FCW34 or AL10, which was used as a positive control), then the cells were stained with SNA lectin to measure 2,6-sialylation level by FACS analysis.
On the technique in general: In flow cytometry, cells or beads pass a laser one at a time.

For the compound `C[C@H](CCC(=O)OCCOCCOCCN=[N+]=[N-])C1CC[C@H]2[C@@H]3CC[C@@H]4C[C@H](OC(=O)[C@H](CC(=O)O)Nc5ccc([N+](=O)[O-])c6nonc56)CC[C@]4(C)[C@H]3CC[C@]12C` (stereo partly drawn) [Compound 3, (3S)-4-(((3R,5R,8R,9S,10S,13R,14S)-17-((R)-5-(2-(2-(2-azidoethoxy)ethoxy)ethoxy)-5-oxopentan-2-yl)-10,13-dimethylhexadecahydro-1H-cyclopenta[a]phenanthren-3-yl)oxy)-3-((7-nitrobenzo[c][1,2,5]oxadiazol-4-yl)amino)-4-oxobutanoic acid], the “selectivity ratio ST3GALI/ST6GALI” value in experiment [1] is recorded as over 139. Further, the IC50 in experiment [1] (α2,6-N-link, read-out: IC50 (μM) ST6GALI) worked out at 3.59 ± 0.38 µM. Also, the inhibition at 500 µM in experiment [2] (measured at 500 μM) was determined as 0%. For the same compound, in experiment [2] (measured at 1 mM), the inhibition at 1000 µM came out at 60%. Besides, the “level of 2,6-sialylation” value in experiment [3] is reported as “greatly reduced”.

A word on the IC50: it is the point on the concentration scale where inhibition reaches its midpoint. A word on the inhibition: it is the drop in the measured response relative to a control, in per cent.
